Reference: ChEMBL document CHEMBL5678818, “Discovery of potent SOS1 inhibitors that block RAS activation via disruption of the RAS-SOS1 interaction” (Proc Natl Acad Sci U S A, 2019)

Legend:
[1] = molecular target: Fibroblast growth factor receptor 4 (Homo sapiens) (UniProt P22455); experiment: Inhibition of FGFR4 (unknown origin) assessed as residual activity at 1000 nM by KINOMEscan analysis relative to control
[2] = molecular target: T1, Hormonally up-regulated neu tumor-associated kinase (Homo sapiens) (UniProt P57058); experiment: Inhibition of HUNK (unknown origin) assessed as residual activity at 1000 nM by KINOMEscan analysis relative to control
T1 sequence (whole entry): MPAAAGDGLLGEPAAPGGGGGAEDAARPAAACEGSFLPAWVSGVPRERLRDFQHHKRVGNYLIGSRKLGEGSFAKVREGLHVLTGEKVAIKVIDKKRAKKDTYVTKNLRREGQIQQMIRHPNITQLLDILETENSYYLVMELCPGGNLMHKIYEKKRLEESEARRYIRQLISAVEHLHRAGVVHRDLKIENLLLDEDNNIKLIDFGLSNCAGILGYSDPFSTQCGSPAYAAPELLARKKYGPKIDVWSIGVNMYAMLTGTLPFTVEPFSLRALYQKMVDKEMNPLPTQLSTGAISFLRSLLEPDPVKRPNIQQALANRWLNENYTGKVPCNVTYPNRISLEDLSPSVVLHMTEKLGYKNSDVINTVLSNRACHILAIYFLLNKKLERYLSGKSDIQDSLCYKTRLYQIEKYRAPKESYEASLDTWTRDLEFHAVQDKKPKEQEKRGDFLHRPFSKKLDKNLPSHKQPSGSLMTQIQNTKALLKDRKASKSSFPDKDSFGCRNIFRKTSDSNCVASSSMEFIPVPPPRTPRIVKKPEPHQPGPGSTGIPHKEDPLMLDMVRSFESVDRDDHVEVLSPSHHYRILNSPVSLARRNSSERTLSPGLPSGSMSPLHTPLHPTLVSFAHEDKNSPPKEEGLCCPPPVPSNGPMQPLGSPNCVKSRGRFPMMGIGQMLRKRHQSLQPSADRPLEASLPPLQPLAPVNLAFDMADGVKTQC

[3] = molecular target: T2, Serine/threonine-protein kinase ULK3 (Homo sapiens) (UniProt Q6PHR2); experiment: Inhibition of ULK3 (unknown origin) assessed as residual activity at 1000 nM by KINOMEscan analysis relative to control
T2 sequence (whole entry): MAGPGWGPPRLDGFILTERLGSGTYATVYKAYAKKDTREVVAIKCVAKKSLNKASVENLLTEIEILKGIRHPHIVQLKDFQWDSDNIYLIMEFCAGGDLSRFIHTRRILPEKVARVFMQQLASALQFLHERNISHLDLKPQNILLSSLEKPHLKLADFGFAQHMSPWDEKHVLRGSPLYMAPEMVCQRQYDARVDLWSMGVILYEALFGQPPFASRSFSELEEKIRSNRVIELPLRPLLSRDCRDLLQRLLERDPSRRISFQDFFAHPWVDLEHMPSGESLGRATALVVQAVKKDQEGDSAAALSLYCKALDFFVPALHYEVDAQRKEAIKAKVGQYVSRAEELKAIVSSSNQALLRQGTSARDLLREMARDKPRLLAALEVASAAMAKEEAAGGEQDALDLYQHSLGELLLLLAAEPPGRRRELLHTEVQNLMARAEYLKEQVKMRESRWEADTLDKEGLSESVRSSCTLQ

[4] = molecular target: Tyrosine-protein kinase Blk (Homo sapiens) (UniProt P51451); experiment: Inhibition of BLK (unknown origin) assessed as residual activity at 1000 nM by KINOMEscan analysis relative to control
Sequence of Tyrosine-protein kinase Blk (Homo sapiens) (P51451 2-505 limits assumed): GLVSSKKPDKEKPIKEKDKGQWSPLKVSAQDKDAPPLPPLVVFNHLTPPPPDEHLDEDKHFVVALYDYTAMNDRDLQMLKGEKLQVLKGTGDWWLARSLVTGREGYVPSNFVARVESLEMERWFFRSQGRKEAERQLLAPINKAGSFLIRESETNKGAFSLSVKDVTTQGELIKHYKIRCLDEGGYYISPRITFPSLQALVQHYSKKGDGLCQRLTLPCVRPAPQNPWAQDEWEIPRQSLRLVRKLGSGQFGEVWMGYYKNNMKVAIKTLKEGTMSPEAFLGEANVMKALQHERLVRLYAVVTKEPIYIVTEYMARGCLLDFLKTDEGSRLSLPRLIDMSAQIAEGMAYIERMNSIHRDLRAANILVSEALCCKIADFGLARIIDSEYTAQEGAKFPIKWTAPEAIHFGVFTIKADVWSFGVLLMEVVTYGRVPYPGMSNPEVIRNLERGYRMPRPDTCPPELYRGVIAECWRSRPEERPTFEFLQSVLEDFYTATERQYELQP

[5] = molecular target: LIM domain kinase 1 (Homo sapiens) (UniProt P53667); experiment: Inhibition of LIMK1 (unknown origin) assessed as residual activity at 1000 nM by KINOMEscan analysis relative to control
Sequence of LIM domain kinase 1 (Homo sapiens) (P53667 whole entry, looked up, the tested form may be a part): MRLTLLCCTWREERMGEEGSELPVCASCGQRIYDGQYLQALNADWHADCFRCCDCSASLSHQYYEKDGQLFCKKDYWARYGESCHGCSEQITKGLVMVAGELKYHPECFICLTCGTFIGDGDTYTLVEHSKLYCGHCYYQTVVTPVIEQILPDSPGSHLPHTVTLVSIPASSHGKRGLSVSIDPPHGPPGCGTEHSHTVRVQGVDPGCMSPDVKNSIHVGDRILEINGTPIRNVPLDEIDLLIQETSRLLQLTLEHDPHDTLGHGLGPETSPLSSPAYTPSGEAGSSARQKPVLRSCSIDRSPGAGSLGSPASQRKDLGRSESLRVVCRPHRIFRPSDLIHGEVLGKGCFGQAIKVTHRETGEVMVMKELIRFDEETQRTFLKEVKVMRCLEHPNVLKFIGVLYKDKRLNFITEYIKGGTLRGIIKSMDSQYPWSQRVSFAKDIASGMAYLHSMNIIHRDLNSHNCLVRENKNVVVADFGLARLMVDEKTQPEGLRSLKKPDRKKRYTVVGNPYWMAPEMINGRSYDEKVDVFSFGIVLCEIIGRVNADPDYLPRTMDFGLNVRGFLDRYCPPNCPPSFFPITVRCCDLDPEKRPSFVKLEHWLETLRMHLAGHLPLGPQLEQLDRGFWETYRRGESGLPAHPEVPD

[6] = molecular target: Dual specificity mitogen-activated protein kinase kinase 2 (Homo sapiens) (UniProt P36507); experiment: Inhibition of MEK2 (unknown origin) assessed as residual activity at 1000 nM by KINOMEscan analysis relative to control
Sequence of Dual specificity mitogen-activated protein kinase kinase 2 (Homo sapiens) (P36507 whole entry): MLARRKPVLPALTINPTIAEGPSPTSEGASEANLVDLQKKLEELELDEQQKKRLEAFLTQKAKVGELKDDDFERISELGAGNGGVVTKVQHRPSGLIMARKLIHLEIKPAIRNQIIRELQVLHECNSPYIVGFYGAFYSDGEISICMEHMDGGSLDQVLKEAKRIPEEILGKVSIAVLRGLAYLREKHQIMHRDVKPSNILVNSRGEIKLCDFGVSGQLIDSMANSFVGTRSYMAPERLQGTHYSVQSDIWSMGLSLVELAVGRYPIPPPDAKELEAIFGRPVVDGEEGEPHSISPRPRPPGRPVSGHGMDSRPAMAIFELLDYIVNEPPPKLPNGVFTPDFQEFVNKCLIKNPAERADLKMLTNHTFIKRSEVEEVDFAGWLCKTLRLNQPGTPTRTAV

[7] = molecular target: T3, cGMP-dependent protein kinase 2 (Homo sapiens) (UniProt Q13237); experiment: Inhibition of PRKG2 (unknown origin) assessed as residual activity at 1000 nM by KINOMEscan analysis relative to control
T3 sequence (whole entry): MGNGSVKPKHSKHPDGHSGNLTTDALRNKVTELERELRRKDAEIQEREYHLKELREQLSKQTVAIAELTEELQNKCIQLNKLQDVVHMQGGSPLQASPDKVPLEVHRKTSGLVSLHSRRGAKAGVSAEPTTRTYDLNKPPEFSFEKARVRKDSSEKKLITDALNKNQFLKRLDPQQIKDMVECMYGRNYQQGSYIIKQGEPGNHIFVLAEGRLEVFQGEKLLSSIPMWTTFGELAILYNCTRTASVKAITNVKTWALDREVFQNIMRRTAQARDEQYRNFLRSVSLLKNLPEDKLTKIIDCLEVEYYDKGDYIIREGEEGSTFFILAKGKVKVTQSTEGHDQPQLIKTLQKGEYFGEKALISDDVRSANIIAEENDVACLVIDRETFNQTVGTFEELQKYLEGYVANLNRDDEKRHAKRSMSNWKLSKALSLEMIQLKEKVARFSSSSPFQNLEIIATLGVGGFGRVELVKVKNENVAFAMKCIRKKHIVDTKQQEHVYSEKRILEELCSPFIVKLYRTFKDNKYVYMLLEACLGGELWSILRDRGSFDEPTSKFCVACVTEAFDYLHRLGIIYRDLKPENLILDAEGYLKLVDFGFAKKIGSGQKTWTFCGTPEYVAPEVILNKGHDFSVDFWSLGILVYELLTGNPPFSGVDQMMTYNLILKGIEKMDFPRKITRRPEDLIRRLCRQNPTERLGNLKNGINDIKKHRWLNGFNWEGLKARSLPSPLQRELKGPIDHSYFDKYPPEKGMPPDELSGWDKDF

[8] = molecular target: MAP kinase-interacting serine/threonine-protein kinase 2 (Homo sapiens) (UniProt Q9HBH9); experiment: Inhibition of MKNK2 (unknown origin) assessed as residual activity at 1000 nM by KINOMEscan analysis relative to control
Sequence of MAP kinase-interacting serine/threonine-protein kinase 2 (Homo sapiens) (Q9HBH9 whole entry, looked up, canonical isoform): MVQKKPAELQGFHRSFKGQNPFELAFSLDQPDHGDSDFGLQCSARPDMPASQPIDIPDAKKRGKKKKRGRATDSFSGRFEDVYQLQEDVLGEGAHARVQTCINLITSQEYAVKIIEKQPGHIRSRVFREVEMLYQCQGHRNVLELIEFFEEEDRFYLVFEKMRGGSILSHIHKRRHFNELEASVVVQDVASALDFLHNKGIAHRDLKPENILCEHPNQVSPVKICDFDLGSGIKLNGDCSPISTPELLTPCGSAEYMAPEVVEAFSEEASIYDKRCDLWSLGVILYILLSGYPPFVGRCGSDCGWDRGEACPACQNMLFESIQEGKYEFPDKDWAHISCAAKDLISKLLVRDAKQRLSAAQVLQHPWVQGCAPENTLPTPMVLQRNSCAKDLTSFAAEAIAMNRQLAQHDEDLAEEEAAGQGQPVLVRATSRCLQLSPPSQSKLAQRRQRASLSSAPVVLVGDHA

[9] = molecular target: Casein kinase I isoform epsilon (Homo sapiens) (UniProt P49674); experiment: Inhibition of CSNK1E (unknown origin) assessed as residual activity at 1000 nM by KINOMEscan analysis relative to control
Sequence of Casein kinase I isoform epsilon (Homo sapiens) (P49674 whole entry, looked up, canonical isoform): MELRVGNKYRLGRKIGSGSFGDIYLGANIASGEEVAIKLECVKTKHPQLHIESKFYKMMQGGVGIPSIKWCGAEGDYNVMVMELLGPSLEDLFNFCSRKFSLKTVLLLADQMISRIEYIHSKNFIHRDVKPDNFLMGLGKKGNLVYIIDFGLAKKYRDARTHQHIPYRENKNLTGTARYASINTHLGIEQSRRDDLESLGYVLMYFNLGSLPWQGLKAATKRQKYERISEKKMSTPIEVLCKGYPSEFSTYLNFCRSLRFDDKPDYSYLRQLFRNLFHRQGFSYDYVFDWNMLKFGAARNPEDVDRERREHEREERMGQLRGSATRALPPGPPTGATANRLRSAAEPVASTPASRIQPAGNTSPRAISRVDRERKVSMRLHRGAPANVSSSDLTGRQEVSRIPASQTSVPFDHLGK

[10] = molecular target: Mitogen-activated protein kinase kinase kinase 14 (Homo sapiens) (UniProt Q99558); experiment: Inhibition of NIK (unknown origin) assessed as residual activity at 1000 nM by KINOMEscan analysis relative to control
Sequence of Mitogen-activated protein kinase kinase kinase 14 (Homo sapiens) (Q99558 whole entry, looked up): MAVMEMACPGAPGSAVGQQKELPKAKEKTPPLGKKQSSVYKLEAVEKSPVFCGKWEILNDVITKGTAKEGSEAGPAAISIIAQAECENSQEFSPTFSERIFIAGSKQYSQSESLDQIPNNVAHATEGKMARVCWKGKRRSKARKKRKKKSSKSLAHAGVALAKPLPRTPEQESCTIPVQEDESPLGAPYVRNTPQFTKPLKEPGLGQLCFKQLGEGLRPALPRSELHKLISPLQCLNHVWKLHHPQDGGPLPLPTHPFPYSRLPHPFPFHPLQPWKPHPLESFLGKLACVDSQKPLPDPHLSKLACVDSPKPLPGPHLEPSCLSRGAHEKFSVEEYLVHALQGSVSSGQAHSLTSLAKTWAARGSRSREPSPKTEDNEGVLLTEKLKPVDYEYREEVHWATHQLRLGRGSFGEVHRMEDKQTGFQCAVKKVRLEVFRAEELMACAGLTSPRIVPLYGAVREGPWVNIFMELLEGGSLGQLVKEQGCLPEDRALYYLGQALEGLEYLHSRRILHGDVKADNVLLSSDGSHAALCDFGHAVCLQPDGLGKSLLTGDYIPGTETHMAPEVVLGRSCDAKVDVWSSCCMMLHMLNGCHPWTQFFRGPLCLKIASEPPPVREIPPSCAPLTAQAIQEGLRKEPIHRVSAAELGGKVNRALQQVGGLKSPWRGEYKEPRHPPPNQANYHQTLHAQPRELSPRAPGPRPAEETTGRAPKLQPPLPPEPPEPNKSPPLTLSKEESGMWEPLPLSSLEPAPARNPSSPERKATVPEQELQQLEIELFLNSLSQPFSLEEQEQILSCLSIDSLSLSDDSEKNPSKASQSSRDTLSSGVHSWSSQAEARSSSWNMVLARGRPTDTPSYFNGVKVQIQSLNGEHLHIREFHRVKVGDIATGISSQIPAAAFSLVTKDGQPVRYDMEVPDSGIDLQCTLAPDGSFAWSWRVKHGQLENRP

[11] = molecular target: Ephrin type-A receptor 2 (Homo sapiens) (UniProt P29317); experiment: Inhibition of EPHA2 (unknown origin) assessed as residual activity at 1000 nM by KINOMEscan analysis relative to control

Sequence of Fibroblast growth factor receptor 4 (Homo sapiens) (P22455 22-802 limits assumed): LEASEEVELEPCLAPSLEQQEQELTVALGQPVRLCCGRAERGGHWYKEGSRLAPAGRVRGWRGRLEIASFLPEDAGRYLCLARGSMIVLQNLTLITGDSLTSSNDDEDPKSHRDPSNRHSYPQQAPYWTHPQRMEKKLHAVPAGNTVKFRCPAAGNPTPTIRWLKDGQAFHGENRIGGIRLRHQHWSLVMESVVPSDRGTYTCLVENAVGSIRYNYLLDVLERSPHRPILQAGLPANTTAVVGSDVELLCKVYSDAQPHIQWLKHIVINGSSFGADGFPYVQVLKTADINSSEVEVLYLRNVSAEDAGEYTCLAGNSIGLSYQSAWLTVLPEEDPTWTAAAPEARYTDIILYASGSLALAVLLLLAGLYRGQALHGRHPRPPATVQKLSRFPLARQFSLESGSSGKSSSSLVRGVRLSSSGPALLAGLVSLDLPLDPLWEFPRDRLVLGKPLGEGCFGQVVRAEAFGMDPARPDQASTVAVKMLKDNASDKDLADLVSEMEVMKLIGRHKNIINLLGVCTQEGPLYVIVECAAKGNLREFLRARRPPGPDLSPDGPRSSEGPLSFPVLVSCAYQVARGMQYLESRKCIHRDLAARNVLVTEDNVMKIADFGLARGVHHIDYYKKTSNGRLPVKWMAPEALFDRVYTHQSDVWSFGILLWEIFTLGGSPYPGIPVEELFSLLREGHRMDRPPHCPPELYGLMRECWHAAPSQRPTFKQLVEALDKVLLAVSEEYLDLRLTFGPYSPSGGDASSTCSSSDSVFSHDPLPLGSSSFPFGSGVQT

| SMILES | Activity [1] [%] | Activity [2] [%] | Activity [3] [%] | Activity [4] [%] | Activity [5] [%] | Activity [6] [%] | Activity [7] [%] | Activity [8] [%] | Activity [9] [%] | Activity [10] [%] | Activity [11] [%] |
| --- | --- | --- | --- | --- | --- | --- | --- | --- | --- | --- | --- |
| COc1cc2nc(C)nc(N[C@H](C)c3cccc(-c4cn[nH]c4)c3)c2cc1OC | 97 | 94 | 82 | 100 | 100 | 63 | 98 | 89 | 97 | 88 | 45 |
| COc1cc2ncnc(N[C@H](C)c3cccc4ccccc34)c2cc1OC | 98 | 76 | 99 | 53 | 100 | 91 | 91 | 100 | 100 | 91 | 94 |
